Experimental data published in paper PMC7253457, “Nitrite modulates aminoglycoside tolerance by inhibiting cytochrome heme-copper oxidase in bacteria” (Communications Biology, 2020).

Key:
[1] = target: T1, S. oneidensis cbb3 (heme-copper oxidase cbb3) (Shewanella oneidensis, UniProt Q8EEL5); details: read-out: IC50(NO2^-); 5 mM NADH as electron donor; ~70 μM O2; membranes of delta-cyd strain
T1 construct: gene ccoN
Text: oxygen consumption of membranes, O2 electrode on S. oneidensis cbb3 (heme-copper oxidase cbb3)

[2] = target: T2, E. coli bo3 (cytochrome bo3 oxidase) (Escherichia coli, UniProt P0ABI8); experiment: biochemical
T2 construct: gene cyoB
Text: oxygen consumption of membranes, O2 electrode on E. coli bo3 (cytochrome bo3 oxidase)

[3] = target: T3, bd (bd-type quinol oxidase) (Shewanella oneidensis, UniProt Q8EC58); details: read-out: IC50(NO2^-); 5 mM NADH as electron donor; ~70 μM O2; membranes of delta-cco strain
T3 construct: gene cydA
Text: oxygen consumption of membranes, O2 electrode on bd (bd-type quinol oxidase)

[4] = target: T4, S. aureus aa3 (cytochrome aa3 oxidase) (Staphylococcus aureus, UniProt Q7A699); experiment: biochemical
T4 construct: gene qoxB
Text: oxygen consumption of membranes, O2 electrode on S. aureus aa3 (cytochrome aa3 oxidase)

T4 sequence (Q7A699 whole entry): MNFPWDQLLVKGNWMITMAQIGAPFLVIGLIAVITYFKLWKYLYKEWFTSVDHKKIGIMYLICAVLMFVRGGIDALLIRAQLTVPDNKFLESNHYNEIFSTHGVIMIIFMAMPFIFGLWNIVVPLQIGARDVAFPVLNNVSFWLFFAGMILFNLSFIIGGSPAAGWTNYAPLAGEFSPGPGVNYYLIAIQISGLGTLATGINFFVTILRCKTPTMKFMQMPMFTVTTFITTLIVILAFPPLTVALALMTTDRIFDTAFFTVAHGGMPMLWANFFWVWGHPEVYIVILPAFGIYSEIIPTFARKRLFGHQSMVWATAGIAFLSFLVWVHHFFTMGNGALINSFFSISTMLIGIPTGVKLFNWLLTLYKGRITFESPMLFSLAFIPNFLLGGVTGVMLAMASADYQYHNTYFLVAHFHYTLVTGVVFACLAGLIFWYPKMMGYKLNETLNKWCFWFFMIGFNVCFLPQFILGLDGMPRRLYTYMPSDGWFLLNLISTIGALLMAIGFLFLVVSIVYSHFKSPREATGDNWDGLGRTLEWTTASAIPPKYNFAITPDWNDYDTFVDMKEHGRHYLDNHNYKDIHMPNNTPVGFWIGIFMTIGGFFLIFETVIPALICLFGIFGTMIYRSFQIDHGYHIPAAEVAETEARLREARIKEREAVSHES
T4 sequence (Q7A698 20-366 partner): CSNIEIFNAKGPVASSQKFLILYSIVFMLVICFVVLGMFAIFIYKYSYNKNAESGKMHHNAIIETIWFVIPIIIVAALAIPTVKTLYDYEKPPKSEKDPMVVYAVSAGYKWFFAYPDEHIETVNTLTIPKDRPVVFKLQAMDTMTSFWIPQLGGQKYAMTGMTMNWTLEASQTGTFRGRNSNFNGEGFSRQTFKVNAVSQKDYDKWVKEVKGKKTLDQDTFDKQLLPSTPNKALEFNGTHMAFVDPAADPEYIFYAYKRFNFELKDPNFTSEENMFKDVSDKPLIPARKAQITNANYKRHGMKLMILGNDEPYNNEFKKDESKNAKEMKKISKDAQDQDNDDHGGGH
T4 sequence (Q7A6A0 whole entry partner): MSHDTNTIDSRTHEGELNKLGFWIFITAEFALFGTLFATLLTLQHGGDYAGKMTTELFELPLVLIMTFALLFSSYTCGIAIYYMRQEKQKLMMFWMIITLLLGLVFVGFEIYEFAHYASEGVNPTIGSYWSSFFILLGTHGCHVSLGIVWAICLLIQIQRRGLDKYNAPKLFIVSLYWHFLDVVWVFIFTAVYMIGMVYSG
T4 sequence (Q7A6A1 whole entry partner): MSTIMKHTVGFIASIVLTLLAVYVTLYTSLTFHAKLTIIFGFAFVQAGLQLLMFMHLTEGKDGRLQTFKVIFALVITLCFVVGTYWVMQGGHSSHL
T3 sequence (Q8EC58 1-518): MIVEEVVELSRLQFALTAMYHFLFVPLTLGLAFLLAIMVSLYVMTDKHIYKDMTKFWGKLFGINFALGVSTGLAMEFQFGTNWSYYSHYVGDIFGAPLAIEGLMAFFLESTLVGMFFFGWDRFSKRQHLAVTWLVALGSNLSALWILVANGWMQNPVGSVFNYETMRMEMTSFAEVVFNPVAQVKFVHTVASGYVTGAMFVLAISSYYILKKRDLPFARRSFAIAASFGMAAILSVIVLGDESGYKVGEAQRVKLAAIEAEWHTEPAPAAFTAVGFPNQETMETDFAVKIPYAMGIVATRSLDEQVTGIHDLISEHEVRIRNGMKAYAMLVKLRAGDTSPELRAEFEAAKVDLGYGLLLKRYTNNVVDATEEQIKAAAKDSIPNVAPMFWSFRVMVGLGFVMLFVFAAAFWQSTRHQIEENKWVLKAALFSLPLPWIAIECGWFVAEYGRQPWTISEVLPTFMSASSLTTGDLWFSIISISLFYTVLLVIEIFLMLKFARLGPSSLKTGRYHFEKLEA
T3 sequence (Q8EC59 1-379 partner): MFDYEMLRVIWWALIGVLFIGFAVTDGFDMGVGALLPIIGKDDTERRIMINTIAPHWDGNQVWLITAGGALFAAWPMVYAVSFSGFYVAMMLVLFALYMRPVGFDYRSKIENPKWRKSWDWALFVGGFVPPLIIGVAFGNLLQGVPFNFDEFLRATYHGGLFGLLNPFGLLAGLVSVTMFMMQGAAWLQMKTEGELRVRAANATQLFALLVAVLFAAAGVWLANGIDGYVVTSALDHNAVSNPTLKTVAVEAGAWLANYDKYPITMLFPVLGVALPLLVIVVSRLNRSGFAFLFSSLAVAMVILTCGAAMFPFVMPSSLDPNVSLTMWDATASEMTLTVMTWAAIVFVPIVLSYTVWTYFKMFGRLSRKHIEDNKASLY
T1 sequence (Q8EEL5 1-478): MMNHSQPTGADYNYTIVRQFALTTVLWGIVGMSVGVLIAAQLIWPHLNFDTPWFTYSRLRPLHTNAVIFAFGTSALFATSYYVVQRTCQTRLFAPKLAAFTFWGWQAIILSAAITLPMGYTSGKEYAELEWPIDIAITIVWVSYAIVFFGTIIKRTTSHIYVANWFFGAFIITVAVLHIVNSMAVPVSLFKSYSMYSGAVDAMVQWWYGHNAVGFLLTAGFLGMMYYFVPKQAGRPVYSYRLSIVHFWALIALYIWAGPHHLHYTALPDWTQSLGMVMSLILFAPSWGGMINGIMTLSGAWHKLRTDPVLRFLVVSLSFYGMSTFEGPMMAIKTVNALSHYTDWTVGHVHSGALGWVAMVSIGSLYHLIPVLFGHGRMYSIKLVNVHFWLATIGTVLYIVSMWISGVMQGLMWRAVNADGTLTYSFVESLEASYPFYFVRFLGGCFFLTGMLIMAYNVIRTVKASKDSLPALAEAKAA
T1 sequence (Q8EEL6 1-208 partner): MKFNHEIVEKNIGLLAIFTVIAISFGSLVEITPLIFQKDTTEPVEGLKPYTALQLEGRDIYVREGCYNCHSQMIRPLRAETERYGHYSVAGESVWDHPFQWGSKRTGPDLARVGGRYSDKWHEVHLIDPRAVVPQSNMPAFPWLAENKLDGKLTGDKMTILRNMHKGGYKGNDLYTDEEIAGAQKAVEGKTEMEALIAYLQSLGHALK
T1 sequence (Q8EEL8 1-322 partner): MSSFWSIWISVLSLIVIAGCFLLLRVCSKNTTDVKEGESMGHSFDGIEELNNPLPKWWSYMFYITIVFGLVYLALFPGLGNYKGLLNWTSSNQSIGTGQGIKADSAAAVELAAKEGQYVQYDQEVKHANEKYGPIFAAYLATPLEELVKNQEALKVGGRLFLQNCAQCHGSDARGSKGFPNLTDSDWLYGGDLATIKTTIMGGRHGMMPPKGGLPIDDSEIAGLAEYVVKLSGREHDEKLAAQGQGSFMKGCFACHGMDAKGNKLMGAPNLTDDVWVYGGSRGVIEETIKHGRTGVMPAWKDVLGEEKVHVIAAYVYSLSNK
T1 sequence (Q8EEL7 1-58 partner): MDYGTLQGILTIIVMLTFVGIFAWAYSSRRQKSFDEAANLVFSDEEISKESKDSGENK
T2 sequence (P0ABI8 whole entry): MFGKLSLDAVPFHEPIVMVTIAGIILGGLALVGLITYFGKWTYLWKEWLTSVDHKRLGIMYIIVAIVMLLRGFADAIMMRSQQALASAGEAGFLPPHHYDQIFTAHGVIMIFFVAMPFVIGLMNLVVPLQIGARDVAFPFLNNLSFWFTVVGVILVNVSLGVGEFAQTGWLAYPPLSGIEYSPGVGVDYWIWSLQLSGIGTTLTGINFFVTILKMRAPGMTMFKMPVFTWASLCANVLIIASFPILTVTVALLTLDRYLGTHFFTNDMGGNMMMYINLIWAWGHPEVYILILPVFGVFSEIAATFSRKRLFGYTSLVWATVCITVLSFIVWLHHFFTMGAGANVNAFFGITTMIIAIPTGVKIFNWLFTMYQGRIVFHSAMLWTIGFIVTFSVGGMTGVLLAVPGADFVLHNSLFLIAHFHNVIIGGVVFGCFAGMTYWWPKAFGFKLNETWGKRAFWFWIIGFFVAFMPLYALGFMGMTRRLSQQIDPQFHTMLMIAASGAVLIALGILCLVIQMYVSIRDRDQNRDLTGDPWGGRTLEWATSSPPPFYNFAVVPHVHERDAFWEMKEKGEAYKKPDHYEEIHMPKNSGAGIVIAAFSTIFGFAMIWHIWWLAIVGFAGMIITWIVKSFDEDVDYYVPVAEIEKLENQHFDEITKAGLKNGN
T2 sequence (P0ABJ1 25-315 partner): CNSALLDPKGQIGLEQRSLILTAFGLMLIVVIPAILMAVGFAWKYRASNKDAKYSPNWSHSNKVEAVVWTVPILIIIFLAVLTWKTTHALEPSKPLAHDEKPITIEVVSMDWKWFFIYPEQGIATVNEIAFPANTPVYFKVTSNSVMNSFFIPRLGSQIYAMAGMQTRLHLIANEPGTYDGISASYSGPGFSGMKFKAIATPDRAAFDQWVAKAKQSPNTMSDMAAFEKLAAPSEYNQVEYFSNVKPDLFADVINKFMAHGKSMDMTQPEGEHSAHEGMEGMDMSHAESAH
T2 sequence (P0ABJ3 whole entry partner): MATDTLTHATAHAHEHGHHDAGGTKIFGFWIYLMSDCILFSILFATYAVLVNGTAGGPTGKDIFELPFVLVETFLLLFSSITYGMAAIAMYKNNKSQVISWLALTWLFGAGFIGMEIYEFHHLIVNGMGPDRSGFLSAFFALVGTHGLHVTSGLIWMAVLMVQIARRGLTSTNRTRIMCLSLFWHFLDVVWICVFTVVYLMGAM
T2 sequence (P0ABJ6 whole entry partner): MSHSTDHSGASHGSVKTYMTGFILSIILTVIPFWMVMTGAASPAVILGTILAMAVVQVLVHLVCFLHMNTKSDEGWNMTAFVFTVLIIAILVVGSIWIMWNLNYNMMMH

## O=NO [nitrite]
[1]
  IC50: 57 ± 6 µM
[2]
  IC50: 120 ± 13 µM
[3]
  IC50: 207 ± 18 µM
[4]
  IC50: 137 ± 15 µM
